Experimental data: article PMC11975020, “Chemoproteomic analysis reveals RECQL4 as a mediator of nitroalkene-dependent double-strand break repair inhibition in cancer” (Research Square, 2025)

Target: T1, RECQL4 (Homo sapiens, UniProt O94761)
T1 construct: RECQL4^449–1111 (lacking the N-terminus)
T1 sequence (O94761 449-1111): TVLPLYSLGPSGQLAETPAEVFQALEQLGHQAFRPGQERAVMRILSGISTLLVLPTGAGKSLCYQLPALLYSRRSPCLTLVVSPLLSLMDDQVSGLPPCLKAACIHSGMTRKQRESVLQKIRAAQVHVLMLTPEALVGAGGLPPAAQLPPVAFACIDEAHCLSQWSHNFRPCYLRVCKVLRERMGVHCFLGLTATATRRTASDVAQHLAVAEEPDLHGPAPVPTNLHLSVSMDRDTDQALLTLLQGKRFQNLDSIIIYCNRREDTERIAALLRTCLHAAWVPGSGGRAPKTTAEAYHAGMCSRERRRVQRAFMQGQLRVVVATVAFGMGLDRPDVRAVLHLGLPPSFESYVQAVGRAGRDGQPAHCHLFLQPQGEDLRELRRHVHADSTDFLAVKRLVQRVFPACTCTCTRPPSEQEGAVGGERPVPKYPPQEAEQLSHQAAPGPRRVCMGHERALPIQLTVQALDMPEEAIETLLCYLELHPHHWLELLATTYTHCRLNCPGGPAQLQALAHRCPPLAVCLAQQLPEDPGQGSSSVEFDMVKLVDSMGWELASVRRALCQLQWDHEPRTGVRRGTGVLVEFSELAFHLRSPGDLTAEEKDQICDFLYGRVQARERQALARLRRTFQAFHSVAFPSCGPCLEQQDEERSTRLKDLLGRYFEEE
Assay: gel-based helicase unwinding assay with purified protein; confirmed by real-time fluorescence helicase assay; LC-MS/MS adduct at Cys1052 in U2OS cells
Format: biochemical

With `CCCCCCCC/C(=C\CCCCCCCC(=O)O)[N+](=O)[O-]` [OA-NO2] the IC50 was 252 nM.
